Measured values published in the NIST ThermoML archive (doi:10.1021/je200721d).

Assay: xn = mol fraction of the nth substance listed
Conditions: Liquid, Vibrating tube method

CCCCCCCCCC [decane] + CCCCCC
Conditions | mass density [kg/m3]
313.08 K, 1000 kPa, x2 = 0.8991 | 654.3
313.08 K, 2000 kPa, x2 = 0.8991 | 655.28
313.08 K, 3000 kPa, x2 = 0.8991 | 656.28
313.08 K, 4000 kPa, x2 = 0.8991 | 657.3
313.08 K, 5000 kPa, x2 = 0.8991 | 658.33
313.08 K, 6000 kPa, x2 = 0.8991 | 659.37
313.08 K, 7000 kPa, x2 = 0.8991 | 660.42
313.08 K, 8000 kPa, x2 = 0.8991 | 661.47
313.08 K, 9000 kPa, x2 = 0.8991 | 662.52
313.08 K, 10000 kPa, x2 = 0.8991 | 663.56
313.08 K, 11000 kPa, x2 = 0.8991 | 664.61
313.08 K, 12000 kPa, x2 = 0.8991 | 665.63
313.08 K, 13000 kPa, x2 = 0.8991 | 666.66
313.08 K, 14000 kPa, x2 = 0.8991 | 667.66
313.08 K, 15000 kPa, x2 = 0.8991 | 668.63
313.08 K, 16000 kPa, x2 = 0.8991 | 669.61
313.08 K, 17000 kPa, x2 = 0.8991 | 670.54
313.08 K, 18000 kPa, x2 = 0.8991 | 671.45
313.08 K, 19000 kPa, x2 = 0.8991 | 672.34
313.08 K, 20000 kPa, x2 = 0.8991 | 673.21
313.08 K, 21000 kPa, x2 = 0.8991 | 674.04
313.08 K, 22000 kPa, x2 = 0.8991 | 674.91
313.08 K, 23000 kPa, x2 = 0.8991 | 675.69
313.08 K, 24000 kPa, x2 = 0.8991 | 676.48
313.08 K, 25000 kPa, x2 = 0.8991 | 677.31
313.17 K, 1000 kPa, x2 = 0.2185 | 704.92
313.17 K, 2000 kPa, x2 = 0.2185 | 705.74
313.17 K, 3000 kPa, x2 = 0.2185 | 706.66
313.17 K, 4000 kPa, x2 = 0.2185 | 707.53
313.17 K, 5000 kPa, x2 = 0.2185 | 708.39
313.17 K, 6000 kPa, x2 = 0.2185 | 709.25
313.17 K, 7000 kPa, x2 = 0.2185 | 710.11
313.17 K, 8000 kPa, x2 = 0.2185 | 710.96
313.17 K, 9000 kPa, x2 = 0.2185 | 711.8
313.17 K, 10000 kPa, x2 = 0.2185 | 712.63
313.17 K, 10990 kPa, x2 = 0.2185 | 713.46
313.17 K, 12000 kPa, x2 = 0.2185 | 714.27
313.17 K, 13000 kPa, x2 = 0.2185 | 715.05
313.17 K, 14000 kPa, x2 = 0.2185 | 715.84
313.17 K, 15000 kPa, x2 = 0.2185 | 716.63
313.17 K, 16000 kPa, x2 = 0.2185 | 717.4
313.17 K, 17000 kPa, x2 = 0.2185 | 718.15
313.17 K, 18000 kPa, x2 = 0.2185 | 718.88
313.17 K, 19000 kPa, x2 = 0.2185 | 719.62
313.17 K, 20000 kPa, x2 = 0.2185 | 720.34
313.17 K, 21000 kPa, x2 = 0.2185 | 721.06
313.17 K, 22000 kPa, x2 = 0.2185 | 721.76
313.17 K, 23000 kPa, x2 = 0.2185 | 722.46
313.17 K, 24000 kPa, x2 = 0.2185 | 723.13
313.17 K, 25000 kPa, x2 = 0.2185 | 723.78
313.18 K, 1000 kPa, x2 = 0.0456 | 713.33
313.18 K, 1000 kPa, x2 = 0.7524 | 668.32
313.18 K, 2000 kPa, x2 = 0.0456 | 714.22
313.18 K, 2000 kPa, x2 = 0.7524 | 669.4
313.18 K, 3000 kPa, x2 = 0.0456 | 715.11
313.18 K, 3000 kPa, x2 = 0.7524 | 670.46
313.18 K, 4000 kPa, x2 = 0.0456 | 715.98
313.18 K, 4000 kPa, x2 = 0.7524 | 671.5
313.18 K, 5000 kPa, x2 = 0.0456 | 716.84
313.18 K, 5000 kPa, x2 = 0.7524 | 672.55
313.18 K, 6000 kPa, x2 = 0.0456 | 717.69
313.18 K, 6000 kPa, x2 = 0.7524 | 673.61
313.18 K, 7000 kPa, x2 = 0.0456 | 718.53
313.18 K, 7000 kPa, x2 = 0.7524 | 674.58
313.18 K, 8000 kPa, x2 = 0.0456 | 719.34
313.18 K, 8000 kPa, x2 = 0.7524 | 675.56
313.18 K, 9000 kPa, x2 = 0.0456 | 720.15
313.18 K, 9000 kPa, x2 = 0.7524 | 676.55
313.18 K, 10000 kPa, x2 = 0.0456 | 720.95
313.18 K, 10000 kPa, x2 = 0.7524 | 677.5
313.18 K, 10990 kPa, x2 = 0.0456 | 721.74
313.18 K, 10990 kPa, x2 = 0.7524 | 678.44
313.18 K, 12000 kPa, x2 = 0.0456 | 722.51
313.18 K, 12000 kPa, x2 = 0.7524 | 679.36
313.18 K, 13000 kPa, x2 = 0.0456 | 723.28
313.18 K, 13000 kPa, x2 = 0.7524 | 680.27
313.18 K, 14000 kPa, x2 = 0.0456 | 724.03
313.18 K, 14000 kPa, x2 = 0.7524 | 681.18
313.18 K, 15000 kPa, x2 = 0.0456 | 724.78
313.18 K, 15000 kPa, x2 = 0.7524 | 682.08
313.18 K, 16000 kPa, x2 = 0.0456 | 725.51
313.18 K, 16000 kPa, x2 = 0.7524 | 682.96
313.18 K, 17000 kPa, x2 = 0.0456 | 726.24
313.18 K, 17000 kPa, x2 = 0.7524 | 683.82
313.18 K, 18000 kPa, x2 = 0.0456 | 726.96
313.18 K, 18000 kPa, x2 = 0.7524 | 684.65
313.18 K, 19000 kPa, x2 = 0.0456 | 727.67
313.18 K, 19000 kPa, x2 = 0.7524 | 685.47
313.18 K, 20000 kPa, x2 = 0.0456 | 728.36
313.18 K, 20000 kPa, x2 = 0.7524 | 686.29
313.18 K, 21000 kPa, x2 = 0.0456 | 729.05
313.18 K, 21000 kPa, x2 = 0.7524 | 687.07
313.18 K, 22000 kPa, x2 = 0.0456 | 729.74
